Results from US20220195384A1, “COMPOSITION FOR PROMOTING PRODUCTION OF STEM CELL-DERIVED EXOSOMES AND INCREASING STEMNESS” (BREXOGEN INC., priority 2019, published 2022).

Legend:
Type in all cases: cell-based
Conditions in all cases: 10 ng/mL interferon-γ pretreatment one week
[1] = tested on: primary umbilical cord-derived mesenchymal stem cells; assay: Content of exosomal protein (Bradford analysis, 595 nm)
Experimental: (§1) In a culture medium [high glucose DMEM (Gibco, Cat no. 11995-065); 10% fetal bovine serum (HyClone), 1% MEM non-essential amino acids solution (100×) (Gibco, Cat no. 11140-050)] containing 20 nM of exendin-4, primary umbilical cord-derived mesenchymal stem cells (ATCC No. PCS-500-010; Lot No. 63822428) were cultured for one week.
(§2) After completion of culturing, the mesenchymal stem cells pretreated with exendin-4 were washed and additionally cultured for 72 hours in a culture medium supplemented with 10% fetal bovine serum (FBS) free of exosomes. The reason of employing exosome-free FBS was to prevent FBS-derived exosomes other than those secreted from the cells from being incorporated because generally used FBS contained a large amount of exosomes derived from bovine serum.
(§3) After 72 hours of culturing, the culture medium in which the pretreated mesenchymal stem cells were cultured was taken and centrifuged at 300×g for 10 min to remove residual cells and cell debris. The supernatant was filtered through a 0.22 μm filter, followed by centrifugation at 10,000×g and 4° C. for 70 min in a high-speed centrifuge. The supernatant thus obtained was subjected again to ultracentrifugation at 100,000×g and 4° C. for 90 min. The exosomes obtained as a pellet were diluted in PBS (phosphate buffered saline) before use in the following experiments.
(§4) In a culture medium [high glucose DMEM (Gibco, Cat no. 11995-065); 10% fetal bovine serum (HyClone), 1% MEM non-essential amino acids solution (100×) (Gibco, Cat no. 11140-050)] containing 10 nM of PMA, primary umbilical cord-derived mesenchymal stem cells (ATCC No. PCS-500-010; Lot No. 63822428) were cultured for one week.
(§5) After completion of culturing, the mesenchymal stem cells pretreated with PMA were washed and additionally cultured for 72 hours in a culture medium supplemented with 10% fetal bovine serum (FBS) free of exosomes. The reason of employing exosome-free FBS was to prevent FBS-derived exosomes other than those secreted from the cells from being incorporated because generally used FBS contained a large amount of exosomes derived from bovine serum.
(§6) In a culture medium [high glucose DMEM (Gibco, Cat no. 11995-065); 10% fetal bovine serum (HyClone), 1% MEM non-essential amino acids solution (100×) (Gibco, Cat no. 11140-050)] containing 10 ng/mL interferon-γ, primary umbilical cord-derived mesenchymal stem cells (ATCC No. PCS-500-010; Lot No. 63822428) were cultured for one week.
(§7) After completion of culturing, the mesenchymal stem cells pretreated with interferon-γ were washed and additionally cultured for 72 hours in a culture medium supplemented with 10% fetal bovine serum (FBS) free of exosomes. The reason of employing exosome-free FBS was to prevent FBS-derived exosomes other than those secreted from the cells from being incorporated because generally used FBS contained a large amount of exosomes derived from bovine serum.
(§8) In a culture medium [high glucose DMEM (Gibco, Cat no. 11995-065); 10% fetal bovine serum (HyClone), 1% MEM non-essential amino acids solution (100×) (Gibco, Cat no. 11140-050)] containing 10 μM of tetrandrine, primary umbilical cord-derived mesenchymal stem cells (ATCC No. PCS-500-010; Lot No. 63822428) were cultured for one week.
(§9) After completion of culturing, the mesenchymal stem cells pretreated with tetrandrine were washed and additionally cultured for 72 hours in a culture medium supplemented with 10% fetal bovine serum (FBS) free of exosomes. The reason of employing exosome-free FBS was to prevent FBS-derived exosomes other than those secreted from the cells from being incorporated because generally used FBS contained a large amount of exosomes derived from bovine serum. […]

[2] = tested on: primary umbilical cord-derived mesenchymal stem cells; assay: Content of exosomal RNA (NanoDrop)
Experimental: as §1, §2, §3, §4, §5, §6, §7, §8, §9

[3] = tested on: primary umbilical cord-derived mesenchymal stem cells; assay: Stem cell stemness: colony formation (CFU-F, crystal violet) after pretreatment
Experimental: as §1, §4, §6, §8
In a culture medium [high glucose DMEM (Gibco, Cat no. 11995-065); 10% fetal bovine serum (HyClone), 1% MEM non-essential amino acids solution (100×) (Gibco, Cat no. 11140-050)] containing 10 μg/mL hyaluronic acid, primary umbilical cord-derived mesenchymal stem cells (ATCC No. PCS-500-010; Lot No. 63822428) were cultured for one week.
In a culture medium [high glucose DMEM (Gibco, Cat no. 11995-065); 10% fetal bovine serum (HyClone), 1% MEM non-essential amino acids solution (100×) (Gibco, Cat no. 11140-050)] containing 30 nM of substance P, primary umbilical cord-derived mesenchymal stem cells (ATCC No. PCS-500-010; Lot No. 63822428) were cultured for one week.
In a culture medium [high glucose DMEM (Gibco, Cat no. 11995-065); 10% fetal bovine serum (HyClone), 1% MEM non-essential amino acids solution (100×) (Gibco, Cat no. 11140-050)] containing 10 nM of resveratrol, primary umbilical cord-derived mesenchymal stem cells (ATCC No. PCS-500-010; Lot No. 63822428) were cultured for one week.
In a culture medium [high glucose DMEM (Gibco, Cat no. 11995-065); 10% fetal bovine serum (HyClone), 1% MEM non-essential amino acids solution (100×) (Gibco, Cat no. 11140-050)] containing 10 μM of lanifibranor, primary umbilical cord-derived mesenchymal stem cells (ATCC No. PCS-500-010; Lot No. 63822428) were cultured for one week.
Mesenchymal stem cells and the exendin-4-pretreated mesenchymal stem cells of the Example were each seeded at a density of 1,000 cells/dish into 100-mm cell culture dishes containing […] of a culture medium [high glucose DMEM (Gibco, Cat no. 11995-065), 10% fetal bovine serum (HyClone), 1% MEM non-essential amino acids solution (100×) (Gibco, Cat no. 11140-050)] per dish and cultured for 21 days. The cell-attached dishes were washed twice with PBS, followed by fixation with 95% methanol at room temperature for about 2 min. The fixed cells were washed three times with PBS and stained with 0.5% crystal violet [(sigma, C-3886, USA) […], methanol 100 ml] for 5 min. After water washing and drying at room temperature, colonies, each composed of 50 or more cells, were counted for comparison.
Mesenchymal stem cells and the PMA-pretreated mesenchymal stem cells of the Example were each seeded at a density of 1,000 cells/dish into 100-mm cell culture dishes containing […] of a culture medium [high glucose DMEM (Gibco, Cat no. 11995-065), 10% fetal bovine serum (HyClone), 1% MEM non-essential amino acids solution (100×) (Gibco, Cat no. 11140-050)] per dish and cultured for 21 days. The cell-attached dishes were washed twice with PBS, followed by fixation with 95% methanol at room temperature for about 2 min. […]

interferon-γ [IFNγ MSC-Exo = exosomes of IFNγ-treated mesenchymal stem cells]
fold greater exosomal proteins than non-treated mesenchymal stem cells [1]: about 6.2 fold
Exosomal protein, yield per 10^6 cells ([1]; then 72 h exosome-free FBS medium, non-treated 2.0): 12.4 ug
fold greater exosomal RNA than non-treated mesenchymal stem cells [2]: about 5.0 fold
Exosomal RNA, yield per 10^6 cells ([2]; then 72 h exosome-free FBS medium, non-treated 31.0): 155.0 ng
colonies formed (each 50 or more cells) ([3]; 1,000 cells/dish, 21 days, non-treated 28.6): 136 colonies
CFU-F increase ([3]; vs non-treated): about 476%
